Experiments:
Assay type in all cases: in vivo, BALB/c mice
[1] = system: mERK2 9m specific CD8+ T cells; test: Specific CD8+ T cell induction in mice, intracellular cytokine staining (mERK2 9m epitope); conditions: FIG. 6; comparing one to six tyrosines
Procedure: (§1) Long chain peptide antigens MEN, all containing three types of mouse CD8+ T cell epitope sequences (MA p265 (Sequence No. 27), NY p81 (Sequence No. 29), and mERK2 9m (Sequence No. 28)), were synthesized. The interepitope sequences between the respective epitopes were one to six consecutive tyrosines (Sequence Nos. 1 and 9-12). Vaccines containing the respective long chain peptide antigens were administered to mice in the same manner as in FIG. 1 and the frequencies of CD8+ T cells specific to the respective epitope sequences were measured by the intracellular cytokine staining method.
as §1, with “five” for “one”, “ten” for “six”, “13-15).” for “9-12).”
Each CHP/long chain peptide complex as the vaccine and the CpG oligo DNA as the adjuvant were administered at the same time to a mouse. Administration was performed by subcutaneous injection on the back of the mouse. As the dose, the CHP/long chain peptide complex was administered at 0.05 to 0.1 mg equivalent of long chain peptide per administration. The CpG oligo DNA was administered at 0.05 mg per administration. One week after the final administration, spleen cells were separated by the following procedure from each vaccine-administered mouse. The spleen was isolated from the mouse and removed of blood by rinsing with RPMI1640 medium. After the spleen was triturated using a glass slide, the released cells were collected in RPMI1640 medium. After centrifuging (400×g, 5 minutes, 4° C.), the supernatant was removed and the cells were treated for 1 minute by adding 2 mL of ACK solution. […]

[2] = system: CD8+ T cells specific to MA p265, NY p81 and mERK2 9m; test: Specific CD8+ T cell induction by CHP/long chain peptide vaccines in mice, intracellular cytokine staining of spleen cells; conditions: for induction of specific CD8+ T cells corresponding to all three types of epitopes: FIG. 1, MEN antigens complexed with CHP, subcutaneous, CpG oligo DNA adjuvant, spleen cells one week after final administration
Excerpt: Long chain peptide antigens MEN, all containing three types of mouse CD8+ T cell epitope sequences (MA p265 (Sequence No. 27), NY p81 (Sequence No. 29), and mERK2 9m (Sequence No. 28)), were synthesized. The interepitope sequences between the respective epitopes were respectively six consecutive tyrosines (Y6) (Sequence No. 1), six consecutive glycines (G6) (Sequence No. 2), six consecutive prolines (P6) (Sequence No. 3), or six consecutive threonines (T6) (Sequence No. 4). Each long chain peptide antigen was complexed with cholesterol-modified pullulan (CHP), which is a type of delivery system, and administered as a vaccine to a mouse. In the process of administration, CpG oligo DNA was coadministered as an adjuvant. Spleen cells were collected one week after the final administration and the frequencies of CD8+ T cells specific to the respective epitope sequences were measured by an intracellular cytokine staining method.
as §1, with “NME,” for “MEN,”, “The antigens differ from the MEN sequences shown in FIG. 1 in the order of the three types of epitopes. The” for “The”, “respectively” for “one to”, “tyrosines (Y6)” for “tyrosines”, “No. 5), six consecutive glycines (G6) (Sequence No. 6), or six consecutive prolines (P6) (Sequence No. 7).” for “Nos. 1 and 9-12).”
as §1, with “MEN, ENM, and NME,” for “MEN,”, “synthesized. MEN, ENM, and […] in the order of the three types of epitopes.” for “synthesized.”, “were each” for “were one to”, “tyrosines (Y6)” for “tyrosines”, “Nos. 1, 5” for “Nos. 1”, “and 8).” for “and 9-12).”
Each long chain peptide was dissolved in dimethyl sulfoxide (DMSO) at a concentration of 10 mg/mL. CHP was dissolved in 6 M urea-containing phosphate buffered saline (PBS) at a concentration of 10 mg/mL 1 mL (10 mg) of the long chain peptide solution and 20 mL (200 mg) of the CHP solution were mixed and left to stand at room temperature overnight in a dark place. The liquid mixture was transferred into a dialysis membrane (molecular weight cutoff: 3,500; Thermo Fisher Scientific, Inc.) and dialyzed for 2 hours to overnight at 4° C. against 0.6 M urea-containing PBS of a volume ratio of not less than 100 times as the dialysis outer solution. Dialysis was then performed for 2 hours to overnight at 4° C. against 0.06 M urea-containing PBS of a volume ratio of not less than 100 times as the dialysis outer solution. Dialysis was performed again for 2 hours to overnight at 4° C. against PBS of a volume ratio of not less than 100 times as the dialysis outer solution. The dialyzed inner solution was collected, filtered through a filtration sterilization filter of 0.45 μm or 0.22 μm pore size, and thereafter the UV absorption at 280 nm was measured to determine the final concentration of the long chain peptide from its molecular extinction coefficient.
Each CHP/long chain peptide complex as the vaccine and the CpG oligo DNA as the adjuvant were administered at the same time to a mouse. Administration was performed by subcutaneous injection on the back of the mouse. […]

[3] = system: mouse fibrosarcoma cell line CMS5a; test: Mouse tumor growth test; conditions: FIG. 2; single dose of vaccine with CpG oligo DNA before subcutaneous CMS5a implantation (prophylactic condition); Student's t test
Excerpt: Long chain peptide antigens MEN, all containing three types of mouse CD8+ T cell epitope sequences (MA p265 (Sequence No. 27), NY p81 (Sequence No. 29), and mERK2 9m (Sequence No. 28)), were synthesized. The interepitope sequences between the respective epitopes were respectively six consecutive tyrosines (Y6) (Sequence No. 1), six consecutive glycines (G6) (Sequence No. 2), or six consecutive prolines (P6) (Sequence No. 3). Each long chain peptide antigen was complexed with CHP and administered in a single dose as a vaccine to a mouse. As a control, a short chain peptide vaccine, constituted of just the mERK2 9m peptide, was mixed with Freund's incomplete adjuvant and administered. In the process of administration, CpG oligo DNA was coadministered as an adjuvant. On the day after administration, a mouse fibrosarcoma cell line CMS5a, expressing mERK2 as a tumor antigen and presenting the CD8+ T cell epitope mERK2 9m derived from the same antigen, was implanted subcutaneously and its growth was recorded over time.
A subcloned CMS5a cell line, obtained from a CMS5 cell line isolated from fibrosarcoma induced by administering 3-methylcholanthrene to a BALB/c mouse, expresses mutant ERK2 (mERK2) as a tumor antigen and presents a CD8^+ T cell epitope derived from the mERK2. The CMS5a cell line cultured in a T75 flask (Nunc) was detached using PBS containing 0.5% trypsin and collected in RPMI1640 medium containing 10% FBS. After centrifuging (400×g, 5 minutes, 4° C.), the supernatant was removed, and the cells were rinsed twice with RPMI1640 medium, thereafter suspended in RPMI1640 medium at a concentration of 1×10^6 cells/100 μL, and implanted subcutaneously in BALB/c mice at a dose of 100 μL/individual. The CHP/long chain peptide complexes and the adjuvant were administered 7 days before tumor implantation (prophylactic condition). After tumor implantation, the length and breadth of the tumor were measured and the product thereof was recorded as tumor size. The data in the tumor growth test were compared by Student's t test using Microsoft® Excel® (Microsoft Corporation).

[4] = system: F4/80+ cells (macrophages); test: Uptake of FAM-labeled long chain peptide antigens in individual animals, regional lymph node macrophages; conditions: FIG. 9, complexed with CHP, subcutaneous, 16 hours after administration
Procedure: The same FAM-labeled long chain peptide antigens as those in FIG. 8 were complexed with CHP and administered subcutaneously to mice. After 16 hours, cells were collected from a regional lymph node of the administration site, and the fluorescence uptakes into dendritic cells and mouse macrophages were measured by flow cytometry with the P4 fraction in the figure being deemed to correspond to the dendritic cells and the P5 fraction in the figure being deemed to correspond to the macrophages.
A test of uptake of long chain peptide antigens by antigen-presenting cells in individual animals was performed as follows. Each long chain peptide was fluorescence-labeled, complexed with a CHP nanogel, administered subcutaneously to BALB/c mice. 16 hours after administration, cells were collected from lymph nodes and after staining with the anti-CD11c antibody and the anti-F4/80 antibody, the uptake of the fluorescence-labeled long chain peptide antigens by CD11c^+ cells (dendritic cells) and F4/80^+ cells (macrophages) was analyzed by flow cytometry.

Sequence: SNPARYEFLYYYYQYIHSANVLYYYYRGPESRLL (Long chain peptide antigen, containing three types of mouse CD8+ T cell epitope sequences (MA p265, NY p81, and mERK2 9m)) [MEN(Y4)]
- induction of specific CD8+ T cells, mERK2 9m (second epitope) [1]: highest
- number of tyrosines of the interepitope sequence, judged in view of the results for the three types of epitopes ([2]; FIG. 6, comparing one to six tyrosines): satisfactory

Sequence: QYIHSANVL [mERK2 9m, reference compound]
- growth of the tumor [3]: significant suppression of tumor growth was not observed

Sequence: SNPARYEFLPPPPPPQYIHSANVLPPPPPPRGPESRLL (Long chain peptide antigen, containing three types of mouse CD8+ T cell epitope sequences (MA p265, NY p81, and mERK2 9m)) [MEN(P6)]
- induction of specific CD8+ T cells corresponding to all three types of epitopes [2]: clearly weak
- fluorescence uptake into macrophages of the regional lymph node [4]: hardly observed
- growth of the tumor [3]: significant suppression of tumor growth was not observed

Sequence: SNPARYEFLGGGGGGQYIHSANVLGGGGGGRGPESRLL (Long chain peptide antigen, containing three types of mouse CD8+ T cell epitope sequences (MA p265, NY p81, and mERK2 9m)) [MEN(G6)]
- induction of specific CD8+ T cells corresponding to all three types of epitopes [2]: clearly weak
- fluorescence uptake into macrophages of the regional lymph node [4]: hardly observed
- growth of the tumor [3]: significant suppression of tumor growth was not observed

— patent US11179450B2, “Long chain antigen containing interepitope sequence that promotes antigen presentation to T cells” (MIE UNIVERSITY, priority 2013, dated 2021)
